# Patent publication US5633277A, “Sulfonamide aminomethylene derivatives as immunosuppressants” (Miles Inc., priority 1995, dated 1997)
# Where “and” joins values, the source holds several entries; their conditions need not be identical. Identical values can stand only once.
# Assays:
# NF-AT = NF-AT Inhibition Assay (NF-AT directed β-galactosidase expression in stimulated FGL-5 cells); type: cell-based; conditions: phorbol ester and ionomycin stimulated, 16-18 hours
# Description: Stimulation of T-cells leads to the appearance of several transcription factors, including one designated "NF-AT". These factors are involved in regulation of gene expression required for immunologic activation. Some of these transcription factors appear to have functions in a wide variety of cell types. By contrast, NF-AT is found primarily in T-cells and its role is restricted to early gene activation.
# Inhibition of NF-AT activity is measured using FGL-5 cells. FGL-5 is a cloned line of stably transfected Jurkat T-cells that contain a construct in which three tandem copies of the NF-AT DNA binding site direct transcription of the lacZ gene, encoding β-galactosidase (Fiering et al., 1990, Genes & Development 4:1823). When these cells are stimulated with phorbol esters which activate protein kinase C and calcium ionophore to raise the intracellular calcium concentration, transcriptionally active NF-AT is produced. In T-cells, this normally leads to the expression of IL-2, T-cell growth factor. However, in FGL-5 cells NF-AT activation leads to the production of β-galactosidase which can be detected using an appropriate substrate.
# NF-AT Inhibition Assay Directed β-Galactosidase Expression
# This assay was performed essentially as described (Bierer et al., 1990, Proc. Natl. Acad. Sci. 87:9231). FGL-5 cells were maintained in medium consisting of RPMI-1640 with 10% FBS, 2 mM L-glutamine, 1% Penicillin- Streptomycin and 15 mM HEPES buffer. The assays were done with exponentially growing cells whose density was not greater than 0.5 million cells/ml. The cells were resuspended to 3 million cells/ml in medium and 0. 1 mi was added to wells of a 96-well plate.
# The compounds of the present invention were dissolved in either ethanol or dimethylsulfoxide at 10 mM and 0.05 ml/well of various dilutions in medium were added to cells in duplicate wells. Treatment controls consisted of duplicate wells to which 0.05 ml/well of either medium, ethanol or dimethylsulfoxide was added. The ethanol and dimethyl sulfoxide were at the same concentration as was used for the compounds. Cells were incubated with compounds at room temperature for 10-15 minutes. Phorbol dibutyrate (Sigma) and Ionomycin (Calbiochem) were dissolved at 50 μg g/mi and 2 mM, respectively and stored at -70° C.
# FGL-5 cells were stimulated by diluting these reagents with medium to 200 ng/ml and 8 μM, respectively and adding of 0.05 ml/well. For unstimulated cell controls, 0.05 mi/well of medium was added to duplicate wells. The plates were incubated overnight (16-18 hours) at 37° C. in a humidified atmosphere of 5% CO2 and air. β-galactosidase activity was measured as the fluorescence generated by the cleavage of 4-methyl umbelliferyl-β-D-galactoside (Sigma) at the β-galactoside bond. After overnight incubation, the cells were centrifuged at 500×g for 3 minutes in the 96-well plates and washed 3 times with PBS. The cells were then resuspended in 0. 18 mi/well of reaction medium containing 100 mM sodium phosphate buffer, pH 7.0, 10 mM potassium chloride, 1 mM magnesium sulfate, 0.1% Triton X-100 (Pierce, Rockford, Ill.), and 0.5 mM 4-methylumbelliferyl-β-D- galactoside.
# The fluorescence at 460 nm using 355 nm excitation was measured at intervals over 1-2 hours (during which fluorescence increased linearly with time) with a LS50 Luminescence Spectrometer (Perkin Elmer).
# The percent inhibition by each concentration of the compounds was calculated as: [formula]
# The values of the concentration of compounds required for 50% inhibition (IC50) were determined by linear regression analysis of the percent inhibition at various compound concentrations.
# [1] = tested on: Lewis rats sensitized with Complete Freund's adjuvant; assay: Adjuvant Arthritis Model in the Rat; type: in vivo; conditions: uninjected hind paw, day 0 to day 16, 10 mg/kg/dose i.p.
# Description: Rats sensitized to mycobacterial antigens in Complete Freund's Adjuvant can develop a rapidly destructive adjuvant arthritis. Adjuvant arthritis appears to be an autoimmune disease. Thus, T lymphocytes from immunized donors can transfer the disease to naive recipients (Pearson and Wood, 1964, J. Exp. Med. 120:547.) and susceptibility is controlled, at least in part, by class II MHC genes (Batisto, et al. 1982, Arthritis Rheum. 25:1194).
# Adjuvant Arthritis Model in the Rat
# Complete Freund's adjuvant is made by supplementing extra heavy mineral oil with 10 mg/ml heat killed Mycobacterium butyricum (Difco Laboratories, Detroit, Mich.). Lewis rats (Charles Rivers, Willmington, Mass.) are given a 0. 1 ml injection of adjuvant (1 mg/animal mycobacterium) subcutaneously into the right hind footpad. In the injected foot, an acute inflammatory reaction occurs which is characterized by erythema, edema and a predominantly neutrophilic cell infiltrate. This is followed by edema in the uninjected contralateral foot by days 10-12. This secondary response is accompanied by a predominantly mononuclear cell infiltrate, indicating the presence of cell-mediated immunity.
# The immune response is quantitated by measuring the change in ankle diameter of the uninjected hind paw from day 0 to day 16 post sensitization. This is accomplished using a hand-held dial micrometer. […]
SMILES,IC50 (NF-AT),Δ Ankle Diameter [1],% Inhibition (of ankle swelling) ([1]; vs vehicle control)
CC[C@H](C)[C@H](NC(=O)[C@@H]1CCCCN1C[C@@H](NS(C)(=O)=O)[C@@H](C)CC)C(=O)NCc1ccccc1 [Example 11],> 15 µM,–,–
"CC(C)C[C@@H](CN1CCC[C@H]1C(=O)NCCCCc1ccccc1)NS(=O)(=O)c1ccc(-c2ccon2)s1 [Example 8, 1-[2-(S)-(5 - [Isoxazol-25-yl]-thiophene-2-sulfonylamino)-4-methylpentyl]-L-proline 4-Phenylbutylamide]",> 15 µM,–,–
"CC(C)C[C@@H](CN1CCC[C@H]1C(=O)NCCCCc1ccccc1)NS(C)(=O)=O [Example 1, 1-[2-(S)-Methanesulfonylamino-4-methylpentyl]-L-proline 4-Phenylbutylamide]",≤ 11 µM and 9 µM,1.6 ± 0.6 mm,51%
"CC(C)C[C@@H](CN1CCC[C@H]1C(=O)NCCCCc1ccccc1)NS(=O)(=O)c1cccc2cccnc12 [Example 3, 1-[2-(S)-(Quinoline-8-sulfonylamino)-4-methylpentyl]-L-proline 4-Phenylbutylamide]",≤ 11 µM and 11 µM,–,–
"CC(C)C[C@@H](CN1CCC[C@H]1C(=O)NCCCCc1ccccc1)NS(=O)(=O)CC12CCC(CC1=O)C2(C)C (single isomer, unassigned) [Example 7]",> 15 µM,–,–

# Continued, in another order:
IC50 (NF-AT),SMILES,Δ Ankle Diameter [1],% Inhibition (of ankle swelling) ([1]; vs vehicle control)
> 15 µM,"CC(C)C[C@@H](CN1CCC[C@H]1C(=O)NCCCCc1ccccc1)NS(=O)(=O)/C=C/c1ccccc1 [Example 6, 1-[2-(S)-(2-phenyl-ethenesulfonylamino)-4-methylpentyl]-L-proline 4-Phenylbutylamtde]",–,–
27 µM,"Cc1ccc(S(=O)(=O)N[C@@H](CC(C)C)CN2CCC[C@H]2C(=O)NCCCCc2ccccc2)cc1 [Example 2, 1-[2-(S)-(Toluene-4-sulfonylamino)-4-methylpentyl]-L-proline 4-Phenylbutylamide]",–,–
> 15 µM,"CC(C)C[C@@H](CN1CCC[C@H]1C(=O)NCCCCc1ccccc1)NS(=O)(=O)c1c(C(C)C)cc(C(C)C)cc1C(C)C [Example 10, 1-[2-(S)-(2',4',6'-Triisopropylbenzenesulfonylamino)-4-methylpentyl]-L-proline 4-Phenylbutylamide]",–,–
24 µM,"CC(C)C[C@@H](CN1CCC[C@H]1C(=O)NCCCCc1ccccc1)NS(=O)(=O)c1cccs1 [Example 5, 1-[2-(S)-(Thiophene-2-sulfonylamino)-4-methylpentyl]-L-proline 4-Phenylbutylamide]",–,–
24 µM,"CC(=O)Nc1nc(C)c(S(=O)(=O)N[C@@H](CC(C)C)CN2CCC[C@H]2C(=O)NCCCCc2ccccc2)s1 [Example 4, 1-[2-(S)-(2-Acetylamino-4-methyl-S-thiazolesulfonylamino)-4-methylpentyl]-L -proline 4-Phenylbutylamide]",–,–
